Assay results from the NIST ThermoML archive (doi:10.1021/je500275j).
Numbers after ± are expanded uncertainties.

Key:
[1] = refractive index (Na D-line) (dimensionless); details: 293.15 K; 101.33 kPa; Liquid; Standard Abbe refractometry
[2] = for viscosity / mass density: 100 kPa, Liquid; for viscosity: Falling or rolling sphere viscometry; for mass density: Vibrating tube method
[3] = xn = mol fraction of the nth substance listed; details: 100 kPa, Liquid; for viscosity: Falling or rolling sphere viscometry; for mass density: Vibrating tube method

Compound | refractive index [1] | viscosity ([2]; 293.15 K) [mPa·s] | mass density ([2]; 293.15 K) [kg/m3] | viscosity ([2]; 298.15 K) [mPa·s] | mass density ([2]; 298.15 K) [kg/m3] | viscosity ([2]; 303.15 K) [mPa·s] | mass density ([2]; 303.15 K) [kg/m3] | viscosity ([2]; 308.15 K) [mPa·s] | mass density ([2]; 308.15 K) [kg/m3] | viscosity ([2]; 313.15 K) [mPa·s] | mass density ([2]; 313.15 K) [kg/m3] | viscosity ([2]; 318.15 K) [mPa·s] | mass density ([2]; 318.15 K) [kg/m3] | other results
CC1CCCCC1 [methylcyclohexane] | 1.4175 ± 0.004 | 0.733 ± 0.011 | 769.58 ± 0.15 | 0.687 ± 0.011 | 765.23 ± 0.15 | 0.645 ± 0.011 | 760.89 ± 0.15 | 0.608 ± 0.011 | 756.53 ± 0.15 | 0.575 ± 0.011 | 752.17 ± 0.16 | 0.545 ± 0.011 | 747.78 ± 0.16 | –
C1CCC(C2CCCCC2)CC1 [1,1'-bicyclohexyl] + CCC1CCCCC1 | – | – | – | – | – | – | – | – | – | – | – | – | – | viscosity ([3]; 293.15 K, x1 = 1): 4.017 ± 0.033 mPa·s; mass density ([3]; 293.15 K, x1 = 1): 886.39 ± 0.15 kg/m3; viscosity ([3]; 298.15 K, x1 = 1): 3.541 ± 0.029 mPa·s; mass density ([3]; 298.15 K, x1 = 1): 882.79 ± 0.15 kg/m3; viscosity ([3]; 303.15 K, x1 = 1): 3.145 ± 0.026 mPa·s; mass density ([3]; 303.15 K, x1 = 1): 879.19 ± 0.15 kg/m3; viscosity ([3]; 308.15 K, x1 = 1): 2.817 ± 0.023 mPa·s; mass density ([3]; 308.15 K, x1 = 1): 875.6 ± 0.15 kg/m3; viscosity ([3]; 313.15 K, x1 = 1): 2.54 ± 0.022 mPa·s; mass density ([3]; 313.15 K, x1 = 1): 872.01 ± 0.15 kg/m3; viscosity ([3]; 318.15 K, x1 = 1): 2.302 ± 0.02 mPa·s; mass density ([3]; 318.15 K, x1 = 1): 868.43 ± 0.15 kg/m3
CCCCC1CCCCC1 [butylcyclohexane] + C1CCC(C2CCCCC2)CC1 | – | – | – | – | – | – | – | – | – | – | – | – | – | viscosity ([3]; 293.15 K, x2 = 0): 1.3 ± 0.014 mPa·s; mass density ([3]; 293.15 K, x2 = 0): 799.6 ± 0.15 kg/m3; viscosity ([3]; 298.15 K, x2 = 0): 1.198 ± 0.013 mPa·s; mass density ([3]; 298.15 K, x2 = 0): 795.85 ± 0.15 kg/m3; viscosity ([3]; 303.15 K, x2 = 0): 1.109 ± 0.013 mPa·s; mass density ([3]; 303.15 K, x2 = 0): 792.1 ± 0.15 kg/m3; viscosity ([3]; 308.15 K, x2 = 0): 1.03 ± 0.013 mPa·s; mass density ([3]; 308.15 K, x2 = 0): 788.33 ± 0.15 kg/m3; viscosity ([3]; 313.15 K, x2 = 0): 0.96 ± 0.012 mPa·s; mass density ([3]; 313.15 K, x2 = 0): 784.56 ± 0.15 kg/m3; viscosity ([3]; 318.15 K, x2 = 0): 0.898 ± 0.012 mPa·s; mass density ([3]; 318.15 K, x2 = 0): 780.78 ± 0.15 kg/m3
CCCCC1CCCCC1 [butylcyclohexane] | 1.4399 ± 0.004 | 1.3 ± 0.014 | 799.6 ± 0.15 | 1.198 ± 0.013 | 795.85 ± 0.15 | 1.109 ± 0.013 | 792.1 ± 0.15 | 1.03 ± 0.013 | 788.33 ± 0.15 | 0.96 ± 0.012 | 784.56 ± 0.15 | 0.898 ± 0.012 | 780.78 ± 0.15 | –
CC1CCCCC1 [methylcyclohexane] + C1CCC(C2CCCCC2)CC1 | – | – | – | – | – | – | – | – | – | – | – | – | – | viscosity ([3]; 293.15 K, x2 = 0): 0.733 ± 0.011 mPa·s; mass density ([3]; 293.15 K, x2 = 0): 769.58 ± 0.15 kg/m3; viscosity ([3]; 298.15 K, x2 = 0): 0.687 ± 0.011 mPa·s; mass density ([3]; 298.15 K, x2 = 0): 765.23 ± 0.15 kg/m3; viscosity ([3]; 303.15 K, x2 = 0): 0.645 ± 0.011 mPa·s; mass density ([3]; 303.15 K, x2 = 0): 760.89 ± 0.15 kg/m3; viscosity ([3]; 308.15 K, x2 = 0): 0.608 ± 0.011 mPa·s; mass density ([3]; 308.15 K, x2 = 0): 756.53 ± 0.15 kg/m3; viscosity ([3]; 313.15 K, x2 = 0): 0.575 ± 0.011 mPa·s; mass density ([3]; 313.15 K, x2 = 0): 752.17 ± 0.16 kg/m3; viscosity ([3]; 318.15 K, x2 = 0): 0.545 ± 0.011 mPa·s; mass density ([3]; 318.15 K, x2 = 0): 747.78 ± 0.16 kg/m3
C1CCC(C2CCCCC2)CC1 [1,1'-bicyclohexyl] | 1.4787 ± 0.004 | 4.017 ± 0.033 | 886.39 ± 0.15 | 3.541 ± 0.029 | 882.79 ± 0.15 | 3.145 ± 0.026 | 879.19 ± 0.15 | 2.817 ± 0.023 | 875.6 ± 0.15 | 2.54 ± 0.022 | 872.01 ± 0.15 | 2.302 ± 0.02 | 868.43 ± 0.15 | Normal melting temperature ([2]; Crystal, DTA): 2.60 ± 6 °C
CCC1CCCCC1 [ethylcyclohexane] | 1.4275 ± 0.004 | 0.851 ± 0.012 | 788.23 ± 0.15 | 0.796 ± 0.012 | 784.2 ± 0.15 | 0.748 ± 0.011 | 780.16 ± 0.15 | 0.704 ± 0.011 | 776.11 ± 0.15 | 0.665 ± 0.011 | 772.04 ± 0.15 | 0.629 ± 0.011 | 767.96 ± 0.15 | –
